The values that follow come from patent US20060264460A1 (Wyeth, priority 2005, published 2006).

Some results are limits rather than exact numbers.

The target of this test is T1, human Cot/Tpl2 kinase (Homo sapiens, UniProt P41279).
T1 construct: human Cot/Tpl2 kinase construct encoding residues 30-398; 6His (N); made in house; host or cells: Sf9 insect cells, baculovirus system (BD Biosciences)
T1 sequence (P41279 30-398): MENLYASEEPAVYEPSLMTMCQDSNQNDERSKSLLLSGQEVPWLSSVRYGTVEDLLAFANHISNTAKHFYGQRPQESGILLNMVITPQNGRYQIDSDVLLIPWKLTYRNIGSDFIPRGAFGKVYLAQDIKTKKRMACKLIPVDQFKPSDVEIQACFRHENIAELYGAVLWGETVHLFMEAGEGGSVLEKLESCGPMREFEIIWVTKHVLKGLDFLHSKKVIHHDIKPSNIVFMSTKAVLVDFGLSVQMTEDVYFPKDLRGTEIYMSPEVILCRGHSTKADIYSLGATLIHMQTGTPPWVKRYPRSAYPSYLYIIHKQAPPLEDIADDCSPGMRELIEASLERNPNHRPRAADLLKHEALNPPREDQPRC
Put plainly: Tpl2/Cot kinase assay: GST-MEK1 phosphorylation detected by ELISA (DELFIA Eu). Type of test: biochemical. Conditions: Tpl2/Cot kinase, GST-MEK1 substrate, 50 uM ATP. The method in brief:
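His-tagged human Tpl2 from Sf9 cells, Ni-affinity and size-exclusion purified (monomer). 0.4 nM Tpl2 with 35 nM GST-MEK1, 50 uM ATP, MOPS pH 7.2, 1% DMSO, 1 h at 30° C; EDTA stop. MEK1 Ser217/221 phosphorylation detected by anti-phospho-MEK1 and Eu-labelled secondary ELISA; IC50 fitted.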
Background: An ELISA detects its analyte on a solid surface through an enzyme-linked reagent.
For the molecule `N#Cc1cnc2c(Br)cc(NCc3cn(-c4cc[n+]([O-])cc4)nn3)cc2c1Nc1ccc(F)c(Cl)c1` [Example 748], the 50% inhibitory concentration (IC50) is 15 nM. In turn, `N#Cc1cnc2c(Cl)cc(NCc3cn(-c4cc[n+]([O-])cc4)nn3)cc2c1Nc1ccc(F)c(Cl)c1` [Example 749] returned an IC50 of 16 nM. This IC50 and that of the molecule before are within 1.5-fold of each other.

`CN(C)C(=O)OCCCn1cc(CNc2cc(Cl)c3ncc(C#N)c(Nc4ccc(F)c(Cl)c4)c3c2)nn1` [Example 750] yielded an IC50 of 16 nM.

As for `N#Cc1cnc2c(Cl)cc(NCc3cn(CCCO)nn3)cc2c1Nc1ccc(F)c(Cl)c1` [Example 751], the IC50 was 3.6 nM. Next, `CN(C)C(=O)OCCCn1cc(CNc2cc(Br)c3ncc(C#N)c(Nc4ccc(F)c(Cl)c4)c3c2)nn1` [Example 752]: 3.5 nM. Next, `N#Cc1cnc2c(Br)cc(NCc3cn(Cc4ccccn4)nn3)cc2c1Nc1ccc(F)c(Cl)c1` [Example 753]: 33 nM; `N#Cc1cnc2c(Cl)cc(NCc3cn(CC4CCCCC4)nn3)cc2c1Nc1ccc(F)c(Cl)c1` [Example 755]: 790 nM. Next, `N#Cc1cnc2c(Cl)cc(NCc3cn(Cc4ccc(C(F)(F)F)cc4)nn3)cc2c1Nc1ccc(F)c(Cl)c1` [Example 756]: greater than 3000 nM. In turn, `CN(C)CCC(c1cccnc1)n1cc(CNc2cc(Br)c3ncc(C#N)c(Nc4ccc(F)c(Cl)c4)c3c2)nn1` (stereo not shown) [Example 757] displayed an IC50 of 6.7 nM. Next, `CN(C)CCC(c1cccnc1)n1cc(CNc2cc(Cl)c3ncc(C#N)c(Nc4ccc(F)c(Cl)c4)c3c2)nn1` (stereo not shown) [Example 759]: 36 nM. Turning to `COC(=O)c1cc(Cl)c2ncc(C#N)c(Nc3ccc(F)c(Cl)c3)c2c1` [Example 760], the half-maximal inhibitory concentration (IC50) was greater than 3000 nM. `CC(c1ccccc1)n1cc(CNc2cc(Cl)c3ncc(C#N)c(Nc4ccc(F)c(Cl)c4)c3c2)nn1` (stereo not shown) [Example 761]: 96 nM corresponded to half-maximal inhibition (IC50). Next, `CC(C)(C)OC(=O)N1CCCN(CCCn2cc(CNc3cc(Br)c4ncc(C#N)c(Nc5ccc(F)c(Cl)c5)c4c3)nn2)CC1` [Example 762]: 520 nM.

`CC(C)(C)OC(=O)N1CCCN(CCCn2cc(CNc3cc(Cl)c4ncc(C#N)c(Nc5ccc(F)c(Cl)c5)c4c3)nn2)CC1` [Example 763] returned an IC50 of 120 nM.

`CC(C)(C)OC(=O)N1CCN(CCCn2cc(CNc3cc(Br)c4ncc(C#N)c(Nc5ccc(F)c(Cl)c5)c4c3)nn2)CC1` [Example 764] returned an IC50 of 1300 nM. This IC50 lies about 11-fold higher than the previous one.

Consider `CC(C)(C)OC(=O)N1CCN(CCCn2cc(CNc3cc(Cl)c4ncc(C#N)c(Nc5ccc(F)c(Cl)c5)c4c3)nn2)CC1` [Example 765], for which the 50% inhibitory concentration (IC50) amounted to 230 nM. This IC50 lies about 5.7-fold lower than the previous one. `N#Cc1cnc2c(Br)cc(NCc3cn(CCCN4CCCNCC4)nn3)cc2c1Nc1ccc(F)c(Cl)c1` [Example 766] displayed an IC50 of 43 nM. Against the preceding molecule, the IC50 is about 5.3-fold lower. In turn, `N#Cc1cnc2c(Cl)cc(NCc3cn(CCCN4CCCNCC4)nn3)cc2c1Nc1ccc(F)c(Cl)c1` [Example 767] came in with an IC50 of 74 nM. Compared with the last molecule, the IC50 is about 1.7-fold higher. In turn, `N#Cc1cnc2c(Br)cc(NCc3cn(CCCN4CCNCC4)nn3)cc2c1Nc1ccc(F)c(Cl)c1` [Example 768] had an IC50 of 110 nM.

For the molecule `N#Cc1cnc2c(Cl)cc(NCc3cn(CCCN4CCNCC4)nn3)cc2c1Nc1ccc(F)c(Cl)c1` [Example 769], the concentration for half-maximal inhibition (IC50) amounted to 160 nM. Regarding `N#Cc1cnc2c(Cl)cc(C(=O)O)cc2c1Nc1ccc(F)c(Cl)c1` [Example 770], the midpoint of inhibition, the IC50, lay at 2400 nM. This IC50 lies about 15-fold higher than the previous one. Next, `N#Cc1cnc2c(Cl)cc(NCC(=O)NCc3cccnc3)cc2c1Nc1ccc(F)c(Cl)c1` [Example 771]: 200 nM; `N#Cc1cnc2c(Cl)cc(NCC(=O)NCc3ccncc3)cc2c1Nc1ccc(F)c(Cl)c1` [Example 772]: 48 nM. `N#Cc1cnc2c(Cl)cc(NCC(=O)Nc3cccnc3)cc2c1Nc1ccc(F)c(Cl)c1` [Example 773] returned an IC50 of 110 nM. Regarding `N#Cc1cnc2c(Cl)cc(NCC(=O)Nc3ccncc3)cc2c1Nc1ccc(F)c(Cl)c1` [Example 774], inhibition was half-maximal at 2400 nM (IC50). Next, `CN(C)CCCNC(=O)CNc1cc(Cl)c2ncc(C#N)c(Nc3ccc(F)c(Cl)c3)c2c1` [Example 775]: greater than 3000 nM. Next, `N#Cc1cnc2c(Cl)cc(NCC(=O)NCCCN3CCOCC3)cc2c1Nc1ccc(F)c(Cl)c1` [Example 776]: greater than 3000 nM; `N#Cc1cnc2c(Cl)cc(NCC(=O)NCCN3CCOCC3)cc2c1Nc1ccc(F)c(Cl)c1` [Example 777]: 530 nM. `CN(C)CCNC(=O)CNc1cc(Cl)c2ncc(C#N)c(Nc3ccc(F)c(Cl)c3)c2c1` [Example 778] yielded an IC50 of 1600 nM. Next, `COCCCNC(=O)CNc1cc(Cl)c2ncc(C#N)c(Nc3ccc(F)c(Cl)c3)c2c1` [Example 779]: 230 nM; `N#Cc1cnc2c(Cl)cc(NCC(=O)NCc3ccccn3)cc2c1Nc1ccc(F)c(Cl)c1` [Example 780]: 330 nM; `CN1CCCC1CCNC(=O)CNc1cc(Cl)c2ncc(C#N)c(Nc3ccc(F)c(Cl)c3)c2c1` (stereo not shown) [Example 781]: greater than 3000 nM.

For the molecule `N#Cc1cnc2c(Cl)cc(NC3CCCC3Cl)cc2c1Nc1ccc(F)c(Cl)c1` (stereo not shown) [Example 782], the IC50 was greater than 3000 nM. Next, `N#Cc1cnc2c(Cl)cc(NCc3cn(CCOC(N)=O)nn3)cc2c1Nc1ccc(F)c(Cl)c1` [Example 784]: 5.9 nM; `N#Cc1cnc2c(Br)cc(NCc3cn(Cc4ccccn4)cn3)cc2c1Nc1ccc(F)c(Cl)c1` [Example 785]: 34 nM.

`N#Cc1cnc2c(Cl)cc(NCc3cn(Cc4ccccn4)cn3)cc2c1Nc1ccc(F)c(Cl)c1` [Example 786]: the IC50 came to 41 nM. Next, `N#Cc1cnc2c(Cl)cc(NCc3cn(Cc4ccncc4)cn3)cc2c1Nc1ccc(F)c(Cl)c1` [Example 787]: 5.3 nM; `CN(C)C(=O)Cn1cc(CNc2cc(Cl)c3ncc(C#N)c(Nc4ccc(F)c(Cl)c4)c3c2)nn1` [Example 788]: 5 nM. Next, `CN(C)C(=O)CCn1cc(CNc2cc(Cl)c3ncc(C#N)c(Nc4ccc(F)c(Cl)c4)c3c2)nn1` [Example 789]: 10 nM; `CN1CC(CCn2cc(CNc3cc(Cl)c4ncc(C#N)c(Nc5ccc(F)c(Cl)c5)c4c3)nn2)N(C)C1=O` (stereo not shown) [Example 790]: 6.1 nM; `CCN1CC(CCn2cc(CNc3cc(Cl)c4ncc(C#N)c(Nc5ccc(F)c(Cl)c5)c4c3)nn2)N(c2ccccc2)C1=O` (stereo not shown) [Example 791]: 25 nM. Next, `CCN1CC(CCn2cc(CNc3cc(Cl)c4ncc(C#N)c(Nc5ccc(F)c(Cl)c5)c4c3)nn2)N(c2ccccc2)C1=S` (stereo not shown) [Example 792]: 130 nM; `CN1CCCN(CCCn2cc(CNc3cc(Br)c4ncc(C#N)c(Nc5ccc(F)c(Cl)c5)c4c3)nn2)CC1` [Example 793]: 70 nM; `CN1CCCN(CCCn2cc(CNc3cc(Cl)c4ncc(C#N)c(Nc5ccc(F)c(Cl)c5)c4c3)nn2)CC1` [Example 794]: 48 nM. The molecule `CN1CCN(CCCn2cc(CNc3cc(Br)c4ncc(C#N)c(Nc5ccc(F)c(Cl)c5)c4c3)nn2)CC1` [Example 795] showed an IC50 of 29 nM. Next, `CN1CCN(CCCn2cc(CNc3cc(Cl)c4ncc(C#N)c(Nc5ccc(F)c(Cl)c5)c4c3)nn2)CC1` [Example 796]: 39 nM; `N#Cc1cnc2c(Cl)cc(NCC(O)CO)cc2c1Nc1ccc(F)c(Cl)c1` (stereo not shown) [Example 797]: 590 nM. Next, `N#Cc1cnc2c(Br)cc(NCC(=O)O)cc2c1Nc1ccc(F)c(Cl)c1` [Example 798]: 140 nM; `N#Cc1cnc2c(Br)cc(NCc3cn(C4CCCC4)cn3)cc2c1Nc1ccc(F)c(Cl)c1` [Example 799]: 230 nM. Take `CC1CC(C)CN(CCCn2cc(CNc3cc(Cl)c4ncc(C#N)c(Nc5ccc(F)c(Cl)c5)c4c3)nn2)C1` (stereo not shown) [Example 800]: 150 nM corresponded to half-maximal inhibition (IC50). Next, `CN(CCCn1cc(CNc2cc(Cl)c3ncc(C#N)c(Nc4ccc(F)c(Cl)c4)c3c2)nn1)C1CCCCC1` [Example 801]: 1.8 nM. As for `CC(=O)Nc1ccc(-n2cc(CNc3cc(Cl)c4ncc(C#N)c(Nc5ccc(F)c(Cl)c5)c4c3)nn2)cc1` [Example 802], it took 35 nM to reach half-maximal inhibition (IC50). This IC50 is about 19-fold higher than that of the molecule before. In turn, `N#Cc1cnc2c(Cl)cc(NC3CCCC3n3cc(CCO)nn3)cc2c1Nc1ccc(F)c(Cl)c1` (stereo not shown) [Example 803] came in with a half-inhibitory concentration (IC50) of 67 nM. Next, `CC(C)n1cnc(CNc2cc(Br)c3ncc(C#N)c(Nc4ccc(F)c(Cl)c4)c3c2)c1` [Example 804]: 68 nM; `N#Cc1cnc2c(Br)cc(NCc3cn(COCc4ccccc4)nn3)cc2c1Nc1ccc(F)c(Cl)c1` [Example 805]: greater than 3000 nM; `CC(CNc1cc(Cl)c2ncc(C#N)c(Nc3ccc(F)c(Cl)c3)c2c1)c1ccncc1` (stereo not shown) [Example 806]: 200 nM. Next, `N#Cc1cnc2c(Cl)cc(NCc3cn(COCc4ccccc4)nn3)cc2c1Nc1ccc(F)c(Cl)c1` [Example 807]: greater than 3000 nM; `CCN1CCC[C@H]1CNc1cc(Cl)c2ncc(C#N)c(Nc3ccc(F)c(Cl)c3)c2c1` [Example 809]: 330 nM. Next, `CC(=O)N1CCC[C@H]1CNc1cc(Cl)c2ncc(C#N)c(Nc3ccc(F)c(Cl)c3)c2c1` [Example 810]: 54 nM. For the molecule `CCN(C[C@@H]1CCCN1CC)c1cc(Cl)c2ncc(C#N)c(Nc3ccc(F)c(Cl)c3)c2c1` [Example 811], the 50% inhibitory concentration (IC50) turned out to be 1200 nM. Next, `CC1(C)OC[C@H](CNc2cc(Cl)c3ncc(C#N)c(Nc4ccc(F)c(Cl)c4)c3c2)O1` [Example 812]: 200 nM.

As for `CC(C)NC(=O)Cn1cc(CNc2cc(Cl)c3ncc(C#N)c(Nc4ccc(F)c(Cl)c4)c3c2)nn1` [Example 813], inhibition was half-maximal at 3.5 nM (IC50).

Take `N#Cc1cnc2c(Cl)cc(NCc3cn(CC(=O)N4CCCCCC4)nn3)cc2c1Nc1ccc(F)c(Cl)c1` [Example 814]: the IC50 came to 4.6 nM. This IC50 and that of the molecule before are within 1.5-fold of each other.

`N#Cc1cnc2c(Cl)cc(NCc3cn(CC(=O)N4CCCCCCC4)nn3)cc2c1Nc1ccc(F)c(Cl)c1` [Example 815]: it took 5.3 nM to reach half-maximal inhibition (IC50).

A word on the IC50: it is the point on the concentration scale where inhibition reaches its midpoint. Higher therefore signals weaker potency in that assay.
